Experimental data as given in patent publication US20220289753A1, “SHP2 INHIBITORS” (IRBM S.P.A., priority 2019, published 2022).
Like-named read-outs stand apart in the source and are kept apart here.

Legend:
[1] = tested on: ERK phosphorylation in KYSE-520 cells; experiment: Phospho-ERK cellular assay (Advanced phospho-ERK1/2 (Thr202/Tyr204) TR-FRET kit); format: cell-based; details: KYSE-520 cells, 2 h at 37° C., TR-FRET, read-out: pERK IC50
In short: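 KYSE-520 cells were treated 2 h at 37° C with serially diluted compounds, then lysed. Phospho-ERK1/2 (Thr202/Tyr204) was detected by TR-FRET after overnight antibody incubation at room temperature. IC50 came from a four-parameter logistic fit; lower signal reflects greater SHP2 inhibition.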

[2] = target: T1, SHP-2 enzyme (Met1-Leu525) (Homo sapiens, UniProt Q06124); experiment: SHP2 inhibition enzymatic assay (DiFMUP substrate, IRS1 peptide activation); format: biochemical; details: SHP2 wt; activated by 500 nM IRS1 peptide; 75 μM DiFMUP substrate
T1 construct: synthetized by Origene, Met1-Leu525, cat #TP750155; purchased Origene TP750155
T1 sequence (Q06124 1-525): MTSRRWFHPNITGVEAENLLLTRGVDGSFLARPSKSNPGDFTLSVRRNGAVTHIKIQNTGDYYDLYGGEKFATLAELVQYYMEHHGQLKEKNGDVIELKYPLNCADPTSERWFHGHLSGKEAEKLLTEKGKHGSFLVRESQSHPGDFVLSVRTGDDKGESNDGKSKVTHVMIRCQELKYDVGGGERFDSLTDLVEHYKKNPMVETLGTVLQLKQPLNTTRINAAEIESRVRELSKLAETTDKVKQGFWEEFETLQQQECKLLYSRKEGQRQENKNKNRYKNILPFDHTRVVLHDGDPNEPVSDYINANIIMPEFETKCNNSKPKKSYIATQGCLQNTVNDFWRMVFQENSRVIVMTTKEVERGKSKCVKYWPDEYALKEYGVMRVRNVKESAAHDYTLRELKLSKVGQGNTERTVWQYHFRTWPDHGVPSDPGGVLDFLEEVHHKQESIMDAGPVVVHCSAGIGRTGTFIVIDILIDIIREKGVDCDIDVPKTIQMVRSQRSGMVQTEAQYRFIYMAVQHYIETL
In short: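 SHP-2 (Met1-Leu525, 0.5 nM final) preincubated 30 min with compounds and IRS1 activating peptide in HEPES pH 7.2 buffer with NaCl, KCl, EDTA, tween-20, 5 mM DTT. DiFMUP then added for 30 min at room temperature and fluorescence read. IC50 from four-parameter logistic fit of % inhibition.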

Row | Structure (SMILES) | IC50 ([1]; Homo sapiens, KYSE-520, 2 h) | IC50 [2] | IC50 [1]
1 | COc1c(Sc2cnc3nc(N4CCC5(CC4)Cc4ccc(F)cc4[C@H]5N)[nH]c3n2)ccnc1N [Example 190, (S)-1′-(6-((2-amino-3-methoxypyridin-4-yl)thio)-1H-imidazo[4,5-b]pyrazin-2-yl)-6-fluoro-1,3-dihydrospiro[indene-2,4′-piperidin]-1-amine] | < 1000 nM | < 500 nM | –
2 | COc1ccncc1Sc1cnc2[nH]c(N3CCC4(CC3)Cc3ccccc3[C@H]4N)nc2n1 [Example 237, (S)-1′-(5-((4-methoxypyridin-3-yl)thio)-1H-imidazo[4,5-b]pyrazin-2-yl)-1,3-dihydrospiro[indene-2,4′-piperidin]-1-amine] | > 5000 nM | < 500 nM | –
3 | N[C@@H]1c2ccccc2CC12CCN(c1nc3nc(Sc4cccc(Cl)c4Cl)c(Cl)nc3[nH]1)CC2 [Example 259, (S)-1′-(6-chloro-5-((2,3-dichlorophenyl)thio)-1H-imidazo[4,5-b]pyrazin-2-yl)-1,3-dihydrospiro[indene-2,4′-piperidin]-1-amine] | < 1000 nM | < 500 nM | –
4 | N[C@@H]1c2ccccc2CC12CCN(c1nc3nc(Sc4cccnc4C(F)(F)F)cnc3[nH]1)CC2 [Example 107, (S)-1′-(5-((2-(trifluoromethyl)pyridin-3-yl)thio)-1H-imidazo[4,5-b]pyrazin-2-yl)-1,3-dihydrospiro[indene-2,4′-piperidin]-1-amine] | < 1000 nM | < 500 nM | –
5 | N[C@@H]1c2ccccc2CC12CCN(c1nc3ncc(Sc4cccc5[nH]ccc45)nc3[nH]1)CC2 [Example 198, (S)-1′-(6-((1H-indol-4-yl)thio)-1H-imidazo[4,5-b]pyrazin-2-yl)-1,3-dihydrospiro[indene-2,4′-piperidin]-1-amine] | < 1000 nM | < 500 nM | –
6 | Nc1nccc(Sc2cnc3[nH]c(N4CCC5(CC4)Cc4ccc(CF)cc4[C@H]5N)nc3n2)c1Cl [Example 245, (S)-1′-(5-((2-amino-3-chloropyridin-4-yl)thio)-1H-imidazo[4,5-b]pyrazin-2-yl)-6-(fluoromethyl)-1,3-dihydrospiro[indene-2,4′-piperidin]-1-amine] | < 1000 nM | < 500 nM | –
7 | COC(=O)c1c(N2CCC3(CC2)Cc2ccccc2[C@H]3N)[nH]c2ncc(Sc3cccc(Cl)c3Cl)nc12 [Example 253, methyl (S)-6-(1-amino-1,3-dihydrospiro[indene-2,4′-piperidin]-1′-yl)-2-((2,3-dichlorophenyl)thio)-5H-pyrrolo[2,3-b]pyrazine-7-carboxylate] | < 1000 nM | < 500 nM | –
8 | Nc1nccc(Sc2cnc3[nH]c(N4CCC5(CC4)Cc4ccc(C6CC6)cc4[C@H]5N)nc3n2)c1Cl [Example 257, (S)-1′-(5-((2-amino-3-chloropyridin-4-yl)thio)-1H-imidazo[4,5-b]pyrazin-2-yl)-6-cyclopropyl-1,3-dihydrospiro[indene-2,4′-piperidin]-1-amine] | < 1000 nM | < 500 nM | –
9 | N[C@@H]1c2ccccc2CC12CCN(c1nc3nc(N4CCCc5ncccc54)cnc3[nH]1)CC2 [Example 249, (S)-1′-(5-(3,4-dihydro-1,5-naphthyridin-1(2H)-yl)-1H-imidazo[4,5-b]pyrazin-2-yl)-1,3-dihydrospiro[indene-2,4′-piperidin]-1-amine] | < 1000 nM | < 500 nM | –
10 | CNc1nccc(Sc2cnc3[nH]c(N4CCC5(CC4)Cc4ccccc4[C@H]5N[S@+]([O-])C(C)(C)C)nc3n2)c1Cl [Example 209, (R)-N-((S)-1′-(5-((3-chloro-2-(methylamino)pyridin-4-yl)thio)-1H-imidazo[4,5-b]pyrazin-2-yl)-1,3-dihydrospiro[indene-2,4′-piperidin]-1-yl)-2-methylpropane-2-sulfinamide] | 1000 to 5000 nM | < 500 nM | < 1000 nM
11 | N[C@@H]1c2ccccc2CC12CCN(c1nc3nc(Sc4cccc5c4OC(F)(F)O5)cnc3[nH]1)CC2 [Example 136, (S)-1′-(5-((2,2-difluorobenzo[d][1,3]dioxol-4-yl)thio)-1H-imidazo[4,5-b]pyrazin-2-yl)-1,3-dihydrospiro[indene-2,4′-piperidin]-1-amine] | < 1000 nM | < 500 nM | –
12 | CNc1nccc(Sc2cnc3[nH]c(N4CCC5(CC4)Cc4ncccc4[C@H]5N)nc3n2)c1Cl [Example 146, (S)-1′-(5-((3-chloro-2-(methylamino)pyridin-4-yl)thio)-1H-imidazo[4,5-b]pyrazin-2-yl)-5,7-dihydrospiro[cyclopenta[b]pyridine-6,4′-piperidin]-5-amine] | < 1000 nM | < 500 nM | –
13 | COc1ccc2nccc(Sc3cnc4[nH]c(N5CCC6(CC5)Cc5ccccc5[C@H]6N)nc4n3)c2n1 [Example 220, (S)-1′-(5-((6-methoxy-1,5-naphthyridin-4-yl)thio)-1H-imidazo[4,5-b]pyrazin-2-yl)-1,3-dihydrospiro[indene-2,4′-piperidin]-1-amine] | 1000 to 5000 nM | < 500 nM | –
14 | N[C@@H]1c2cccnc2CC12CCN(c1nc3ncc(Sc4cccc(Cl)c4Cl)nc3[nH]1)CC2 [Example 172, (S)-1′-(5-((2,3-dichlorophenyl)thio)-1H-imidazo[4,5-b]pyrazin-2-yl)-5,7-dihydrospiro[cyclopenta[b]pyridine-6,4′-piperidin]-5-amine] | < 1000 nM | < 500 nM | –
15 | Nc1nccc(Sc2cnc3[nH]c(N4CCC5(CC4)Cc4ccccc4[C@H]5N)nc3n2)c1F [Example 222, (S)-1′-(5-((2-amino-3-fluoropyridin-4-yl)thio)-1H-imidazo[4,5-b]pyrazin-2-yl)-1,3-dihydrospiro[indene-2,4′-piperidin]-1-amine] | > 5000 nM | < 500 nM | –
16 | COc1cc(Sc2cnc3[nH]c(N4CCC5(CC4)Cc4ccccc4[C@H]5N)nc3n2)c(Cl)cn1 [Example 242, (S)-1′-(5-((5-chloro-2-methoxypyridin-4-yl)thio)-1H-imidazo[4,5-b]pyrazin-2-yl)-1,3-dihydrospiro[indene-2,4′-piperidin]-1-amine] | 1000 to 5000 nM | 500 to 3000 nM | –
17 | Nc1nccc(Sc2cnc3nc(N4CCC5(CC4)Cc4cc(F)ccc4[C@H]5N)[nH]c3n2)c1Cl [Example 199, (S)-1′-(6-((2-amino-3-chloropyridin-4-yl)thio)-1H-imidazo[4,5-b]pyrazin-2-yl)-5-fluoro-1,3-dihydrospiro[indene-2,4′-piperidin]-1-amine] | < 1000 nM | < 500 nM | –
18 | CC1(N)CCN(c2nc3nc(Sc4ccnc5ccccc45)cnc3[nH]2)CC1 [Example 61, 4-methyl-1-(5-(quinolin-4-ylthio)-1H-imidazo[4,5-b]pyrazin-2-yl)piperidin-4-amine] | 1000 to 5000 nM | < 500 nM | –
19 | N[C@@H]1c2cccnc2CC12CCN(c1nc3nc(Sc4ccnc(OC5COC5)c4Cl)cnc3[nH]1)CC2 [Example 153, (S)-1′-(5-((3-chloro-2-(oxetan-3-yloxy)pyridin-4-yl)thio)-1H-imidazo[4,5-b]pyrazin-2-yl)-5,7-dihydrospiro[cyclopenta[b]pyridine-6,4′-piperidin]-5-amine] | > 5000 nM | 500 to 3000 nM | –
20 | Cn1cc2c(n1)CC1(CCN(c3nc4nc(Sc5ccnc(N)c5Cl)cnc4[nH]3)CC1)C2N (centres unmarked) [Example 233, 1′-(5-((2-amino-3-chloropyridin-4-yl)thio)-1H-imidazo[4,5-b]pyrazin-2-yl)-2-methyl-2,6-dihydro-4H-spiro[cyclopenta[c]pyrazole-5,4′-piperidin]-4-amine] | < 1000 nM | < 500 nM | –
21 | N[C@@H]1CCCC12CCN(c1nc3ncc(Sc4cccnc4C(F)(F)F)nc3[nH]1)CC2 [Example 2, (R)-8-(6-((2-(trifluoromethyl)pyridin-3-yl)thio)-1H-imidazo[4,5-b]pyrazin-2-yl)-8-azaspiro[4.5]decan-1-amine] | 1000 to 5000 nM | < 500 nM | –
22 | COc1ncccc1Sc1cnc2[nH]c(N3CCC4(CC3)Cc3ccc(Br)cc3[C@H]4N)nc2n1 [Example 231, (S)-6-bromo-1′-(5-((2-methoxypyridin-3-yl)thio)-1H-imidazo[4,5-b]pyrazin-2-yl)-1,3-dihydrospiro[indene-2,4′-piperidin]-1-amine] | < 1000 nM | < 500 nM | –
23 | Nc1cc(Sc2cnc3nc(N4CCC5(CC4)Cc4ccccc4[C@H]5N)[nH]c3n2)c(Cl)cn1 [Example 185, (S)-1′-(6-((2-amino-5-chloropyridin-4-yl)thio)-1H-imidazo[4,5-b]pyrazin-2-yl)-1,3-dihydrospiro[indene-2,4′-piperidin]-1-amine] | < 1000 nM | < 500 nM | –
